PubChem BioAssay (NCI)
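Briefly, cells in 96-well plates were exposed to five compound concentrations for 48 h, and endpoints were estimated by linear interpolation. GI50: concentration for 50% inhibition of growth. TGI denotes the concentration required for complete inhibition of growth.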

Tested on: MOLT-4 leukemia
Assay: inhibition of tumour cell growth, NCI panel, 48 h

Row | SMILES | TGI | GI50
1 | CCn1c(-c2ccc(OC(C)=O)cc2)c(C)c2cc(OC(C)=O)ccc21 | 34 µM | –
2 | O=c1cccc(C#CC#CC2=CCCCC2)o1 | > 33 µM | 0.309 µM
3 | COc1ccc(OC)c2c(C(=O)O)c(Cc3ccccc3)ccc12 | > 100 µM | –
4 | O=C(Nc1c(Cl)cc([N+](=O)[O-])cc1Cl)C(=O)C(C1OC(=O)c2ccccc21)[N+](=O)[O-] (stereo unspecified) | > 100 µM | –
5 | Cc1c(C(=O)/C=C/c2ccccc2)[n+](=O)c2ccccc2n1[O-] | 54.6 µM | –
6 | N#CC1CC2(C1)OCCS2 (stereo unspecified) | > 100 µM | –
7 | O=C1Nc2ccc(F)cc2/C1=C/c1ccc[nH]1 | > 25 µM | > 25 µM
8 | Br[C](Br)(Br)[Hg][c]1ccccc1 | 35.2 µM | 3.66 µM
9 | C1C[OH+]CC[OH+]CC[OH+]CC[OH+]CC[OH+]1.[Cl-].[V] | > 100 µM | > 100 µM
10 | COc1ccc(CC2NCCc3cc(OC)c(OC)cc32)cc1Br (stereo unspecified) | 73.3 µM | –
11 | c1ccc(C2Nc3ccccc3C3OCCCC23)cc1 (stereo unspecified) | > 100 µM | –
12 | CCOc1cc(C(C)(C)C)ccc1C1=N[C@@](C)(c2ccc(Cl)cc2)[C@@](C)(c2ccc(Cl)cc2)N1C(=O)N1CCN(CCCS(C)(=O)=O)CC1 | > 100 µM | 0.375 µM

Tested on: M19-MEL melanoma
Assay: inhibition of tumour cell growth, NCI panel, 48 h

Row | SMILES | TGI | GI50
13 | O=C1[C@@H]2C(c3ccccc3F)=NO[C@@H]2C(=O)N1c1ccc(Cc2ccc(N3C(=O)[C@H]4C(c5ccccc5F)=NO[C@H]4C3=O)cc2)cc1 | > 100 µM | –
14 | C=CCc1ccc(Oc2cc(CC=C)c3c(c2O)O[C@@H](CO)[C@H]3c2ccc(O)c(-c3cc(CC=C)ccc3O)c2)cc1 | > 100 µM | –
15 | O=C(NCO)NCOCn1c(=O)n(CO)c(=O)n(CO)c1=O | > 66.3 µM | –
16 | Clc1ccc2c(c1)-c1c3c(nn1-c1ccccc1)-c1ccccc1SC3O2 (stereo unspecified) | > 100 µM | –
17 | O=C1OC2CCCC[C@@H]2C2C[C@]34CCCCC3[C@@H](C(=O)O4)C12 (stereo partly specified) | > 100 µM | –
18 | CN(C)c1cc[c]([Sn]([c]2ccc(N(C)C)cc2)([c]2ccc(N(C)C)cc2)[c]2ccc(N(C)C)cc2)cc1 | 24.4 µM | 5.17 µM
19 | C/C(N=NC(=S)N(C)C)=C1\C=CC=CN1O | > 100 µM | –
20 | CCCSc1nc(COC(=O)NC)c(COC(=O)NC)n1C | > 100 µM | –
21 | O=C1CCC(O)=C1N=Nc1ccccc1 | > 100 µM | –
22 | CCN(CC)c1ccc(N=Nc2ccc(-c3nc4ccc[n+](C)c4s3)cc2)cc1 | 10.6 µM | –
23 | NC(=O)NCc1c(C(N)=O)ncn1Cc1ccccc1 | > 100 µM | –
24 | O=C1CSC(/C(=N/Nc2ccccc2)c2nc3ccccc3[nH]2)=N1 | > 100 µM | –
25 | O=C(c1ccccc1)C1OC12C(=O)Nc1ccccc12 (stereo unspecified) | > 100 µM | –
26 | COc1ccc2nc(NC(=O)C(=O)C(C#N)c3ccc([N+](=O)[O-])cc3)sc2c1 (stereo unspecified) | > 100 µM | –
27 | O=C(O)[C@H](NS(=O)(=O)c1ccc([N+](=O)[O-])cc1)c1ccccc1 | > 100 µM | –
28 | S=C1OC2CCCC[C@H]2O1 (stereo partly specified) | > 100 µM | –
29 | O=C1/C(=C/c2cccc([N+](=O)[O-])c2)COc2ccc(Br)cc21 | > 100 µM | –
30 | CSC(C1c2ccccc2N(c2ccc(C)cc2)c2[nH]c(=O)n(C)c(=O)c21)S(=O)(=O)c1ccc(C)cc1 (stereo unspecified) | > 100 µM | –
31 | CCOC(=O)NC(=O)c1cn(CCCOC(=O)CCCCCCCCCCC(=O)OCCCn2cc(C(=O)NC(=O)OCC)c(=O)[nH]c2=O)c(=O)[nH]c1=O | > 100 µM | –
32 | COc1cc(/C=C(\C#N)c2ccccc2)cc(OC)c1 | > 100 µM | –
33 | N#Cc1cccnc1Cl | > 100 µM | –
34 | CCCCCCCCCCCC(=O)OCC1OC(OC)C(NC(=O)N(CCCl)N=O)C(O)C1O (stereo unspecified) | > 100 µM | –
35 | C=CC/C=C/C/C=C/CCCCCCCc1cccc(O)c1C(=O)O | > 100 µM | –
36 | COc1ccc(OC)c2c(C(=O)O)c(Cc3ccccc3)ccc12 | > 100 µM | –
37 | O=C(Nc1c(Cl)cc([N+](=O)[O-])cc1Cl)C(=O)C(C1OC(=O)c2ccccc21)[N+](=O)[O-] (stereo unspecified) | > 100 µM | –
38 | Cc1c(C(=O)/C=C/c2ccccc2)[n+](=O)c2ccccc2n1[O-] | 30 µM | –
39 | COc1ccc(CC2NCCc3cc(OC)c(OC)cc32)cc1Br (stereo unspecified) | 41.5 µM | –
40 | c1ccc(C2Nc3ccccc3C3OCCCC23)cc1 (stereo unspecified) | > 100 µM | –

Tested on: MCF7 breast
Assay: inhibition of tumour cell growth, NCI panel, 48 h

Row | SMILES | TGI | GI50
41 | C=C1C(=O)OC2/C=C(\COC(C)=O)CCC(OC(C)=O)C3=CC(OC3=O)C12 (stereo unspecified) | 15.5 µM | –
42 | C/C(N=NC(=S)N(C)C)=C1\C=CC=CN1O | > 100 µM | –
43 | CCCSc1nc(COC(=O)NC)c(COC(=O)NC)n1C | > 100 µM | –
44 | CC(C)C[C@H](NC(=O)/C=C/Cn1ccc2ccccc2c1=O)B(O)O | > 100 µM | 5.33 µM
45 | O=c1cc(NC2CCN(CCCc3ccccc3)CC2)c2cc(Cl)ccc2o1 | 26.9 µM | 9.42 µM
46 | Nc1nc(F)nc2c1ncn2C1OC(CO)C(O)C1O (stereo unspecified) | > 100 µM | 26.3 µM
47 | CCn1c(SCc2ccc(C)cc2)nnc1-c1nn(-c2ccc(Cl)cc2Cl)c(-c2ccc(Cl)cc2)c1C | 11.4 µM | 2.26 µM
48 | CCn1c(-c2ccc(OC(C)=O)cc2)c(C)c2cc(OC(C)=O)ccc21 | 40.4 µM | –
49 | O=c1cccc(C#CC#CC2=CCCCC2)o1 | 13.4 µM | 5.04 µM
50 | O=C1Nc2ccc(F)cc2/C1=C/c1ccc[nH]1 | > 25 µM | 1.06 µM
51 | Br[C](Br)(Br)[Hg][c]1ccccc1 | 19.4 µM | 4.85 µM
52 | COc1ccc(CC2NCCc3cc(OC)c(OC)cc32)cc1Br (stereo unspecified) | > 100 µM | –
53 | CCOc1cc(C(C)(C)C)ccc1C1=N[C@@](C)(c2ccc(Cl)cc2)[C@@](C)(c2ccc(Cl)cc2)N1C(=O)N1CCN(CCCS(C)(=O)=O)CC1 | 3.89 µM | 0.456 µM

Tested on: DMS 114 small cell lung
Assay: inhibition of tumour cell growth, NCI panel, 48 h

Row | SMILES | TGI | GI50
54 | O=C1[C@@H]2C(c3ccccc3F)=NO[C@@H]2C(=O)N1c1ccc(Cc2ccc(N3C(=O)[C@H]4C(c5ccccc5F)=NO[C@H]4C3=O)cc2)cc1 | > 100 µM | –
55 | C=CCc1ccc(Oc2cc(CC=C)c3c(c2O)O[C@@H](CO)[C@H]3c2ccc(O)c(-c3cc(CC=C)ccc3O)c2)cc1 | 54.6 µM | –
56 | O=C(NCO)NCOCn1c(=O)n(CO)c(=O)n(CO)c1=O | 99.3 µM | –
57 | Clc1ccc2c(c1)-c1c3c(nn1-c1ccccc1)-c1ccccc1SC3O2 (stereo unspecified) | > 100 µM | –
58 | O=C1OC2CCCC[C@@H]2C2C[C@]34CCCCC3[C@@H](C(=O)O4)C12 (stereo partly specified) | > 100 µM | –
59 | CN(C)c1cc[c]([Sn]([c]2ccc(N(C)C)cc2)([c]2ccc(N(C)C)cc2)[c]2ccc(N(C)C)cc2)cc1 | 13.8 µM | 3.15 µM
60 | C=C1C(=O)OC2/C=C(\COC(C)=O)CCC(OC(C)=O)C3=CC(OC3=O)C12 (stereo unspecified) | 3.18 µM | –
61 | CCCSc1nc(COC(=O)NC)c(COC(=O)NC)n1C | > 100 µM | –
62 | O=C1CCC(O)=C1N=Nc1ccccc1 | > 100 µM | –
63 | NC(=O)NCc1c(C(N)=O)ncn1Cc1ccccc1 | > 100 µM | –
64 | O=C1CSC(/C(=N/Nc2ccccc2)c2nc3ccccc3[nH]2)=N1 | > 100 µM | –
65 | O=C(c1ccccc1)C1OC12C(=O)Nc1ccccc12 (stereo unspecified) | 88.8 µM | –
66 | COc1ccc2nc(NC(=O)C(=O)C(C#N)c3ccc([N+](=O)[O-])cc3)sc2c1 (stereo unspecified) | > 100 µM | –
67 | O=C(O)[C@H](NS(=O)(=O)c1ccc([N+](=O)[O-])cc1)c1ccccc1 | > 100 µM | –
68 | S=C1OC2CCCC[C@H]2O1 (stereo partly specified) | > 100 µM | –
69 | O=C1/C(=C/c2cccc([N+](=O)[O-])c2)COc2ccc(Br)cc21 | > 100 µM | –
70 | CSC(C1c2ccccc2N(c2ccc(C)cc2)c2[nH]c(=O)n(C)c(=O)c21)S(=O)(=O)c1ccc(C)cc1 (stereo unspecified) | > 100 µM | –
71 | COc1cc(/C=C(\C#N)c2ccccc2)cc(OC)c1 | > 100 µM | –
72 | N#Cc1cccnc1Cl | > 100 µM | –
73 | CCCCCCCCCCCC(=O)OCC1OC(OC)C(NC(=O)N(CCCl)N=O)C(O)C1O (stereo unspecified) | 39 µM | –
74 | C=CC/C=C/C/C=C/CCCCCCCc1cccc(O)c1C(=O)O | > 100 µM | –
75 | COc1ccc(OC)c2c(C(=O)O)c(Cc3ccccc3)ccc12 | > 100 µM | –
76 | O=C(Nc1c(Cl)cc([N+](=O)[O-])cc1Cl)C(=O)C(C1OC(=O)c2ccccc21)[N+](=O)[O-] (stereo unspecified) | > 100 µM | –
77 | Cc1c(C(=O)/C=C/c2ccccc2)[n+](=O)c2ccccc2n1[O-] | 22.2 µM | –
78 | C1C[OH+]CC[OH+]CC[OH+]CC[OH+]CC[OH+]1.[Cl-].[V] | > 100 µM | > 100 µM
79 | COc1ccc(CC2NCCc3cc(OC)c(OC)cc32)cc1Br (stereo unspecified) | 52.9 µM | –
80 | c1ccc(C2Nc3ccccc3C3OCCCC23)cc1 (stereo unspecified) | 62.4 µM | –
